Data published in patent US20110053900A1, “PROGESTERONE ANTAGONISTS SUCH AS CDB-4124 IN THE TREATMENT OF BREAST CANCER” (Repros Therapeutics inc, priority 2008, published 2011).

Key:
rabbit uterus = assay: Anti-McGinty and anti-Clauberg assays; format: in vivo; settings: in comparison to RU 486 and CDB-2914
Description: Also given in the Table are the relative biological activities of the same compounds in the rabbit uterus by the anti-McGinty and anti-Clauberg assays. Compound CDB-2914 (listed at the end of the Table) was used as the control or reference compound (rabbit Biological Activity=1.00) for these experiments because results of experiments using CDB-2914 have been published before (Hild-Petito et al., 1996; Passaro et al., 1997; Reel et al., 1998; Lamer et al., 2000). For the anti-McGinty test, immature female rabbits received a subcutaneous injection of 5 μg estradiol in 10% ethanol/sesame oil daily for 6 consecutive days. On day 7, animals underwent sterile abdominal surgery to ligate a 3-4 cm segment of both uterine horns. The test compound in appropriate solvent was injected intraluminally into the ligated segment of one uterine horn and vehicle alone into the other. A stimulating dose of progesterone (267 μg/day) was administered subcutaneously to each rabbit daily for the next three days to induce endometrial proliferation. All animals were sacrificed at day 10 for removal of the uterus where a segment central to the ligatures was removed and fixed in 10% neutral buffered formalin and submitted for histological processing. Five micron sections stained with hematoxylin and cosin were evaluated microscopically for the degree of endometrial glandular proliferation. The percent inhibition of endometrial proliferation for each rabbit was calculated and the mean of the group of five animals recorded. For the Anti-Clauberg test, immature female rabbits received a subcutaneous injection of 5 μg estradiol in 10% ethanol/sesame oil daily for 6 consecutive days. On day 7, animals received progesterone by subcutaneous injection (160 μg/day) and the experimental compound in appropriate vehicle orally or subcutaneously for five consecutive days. One group of rabbits received progesterone only. Twenty-four hours after the last dose, all animals were sacrificed for removal of the uterus which was cleaned of all fat and connective tissue, weighed to the nearest 0.2 mg and placed in 10% neutral buffered formalin for subsequent histological processing. Five micron sections stained with hematoxylin and eosin were evaluated microscopically for the degree of endometrial glandular proliferation. The percent inhibition of endometrial proliferation at each dose level of the test compound was derived by comparison with progesterone-stimulated animals alone. The data presented in Table 1 (rabbit Biol. Act.) reflects the average of the results obtained for each compound by the anti-McGinty and anti-Clauberg assays relative to CDB-2914.

[1] = system: rabbit progesterone receptor (rbPR) and glucocorticoid receptor (rbGR); assay: Receptor-binding assays, ratio of relative binding affinities rbPR/rbGR; settings: RBA = EC50 of standard/EC50 of test compound x 100
Description: (§1) Certain antiprogestins were tested in receptor-binding assays for their ability to bind rabbit progesterone receptor (rbPR) and glucocorticoid receptor (rbGR). Briefly, cytosol containing PR or GR were prepared in TEGMD buffer (10 mM Tris, pH 7.2, 1.5 mM EDTA, 0.2 mM sodium molybdate, 10% glycerol, 1 mM DTT) from uterus or thymus, respectively, of estradiol-primed immature rabbits. For PR binding, the cytosol was incubated with 6 nM 1,2-[^3H]progesterone (50.0 Ci/mmole) and competitors were added at concentrations from 2 to 100 nM. For binding to GR, the cytosol was incubated with 6 nM 6,7-[^3H]-dexamethasone (40 Ci/mmol) and test compounds were added at concentrations from 20 to 100 nM. After overnight incubation at 4° C., bound and unbound [^3H] steroids were separated by addition of dextran-coated charcoal and centrifugation at 2100×g for 15 min at 4
C. Supernatants containing the [3H]-steroid receptor complexes were decanted into vials containing 4 ml Optifluor (Packard Instrument Co.), vortexed, equilibrated in a liquid scintillation counter for 30 minutes and then counted for 2 minutes. The ECso (Effective Concentration) for each standard curve and each of the compound curves was determined by entering the counting data into a four parameter sigmoidal computer program (RiaSmart® Immunoassay Data Reduction Program, Packard Instrument Co., Meriden, Conn.). Relative binding affinity (RBA) for each compound was calculated using the following equation: EC50 of standard/EC50 of test compound×100. The standards for the PR and GR assays were unlabeled progesterone and dexamethasone, respectively. The results of these experiments are summarized in Table 1, as a ratio of the relative binding affinities of each compound for the rbPR and rbGR receptors (rbPR/rbGR).

[2] = molecular target: T1, glucocorticoid receptor (rbGR) (Oryctolagus cuniculus, UniProt P59667); assay: Glucocorticoid receptor binding; parameters: species or system rabbit
T1 construct: cytosol containing PR or GR were prepared in TEGMD buffer; from tissue; host or cells: thymus of estradiol-primed immature rabbits (cytosol)
T1 sequence (P59667 1-772): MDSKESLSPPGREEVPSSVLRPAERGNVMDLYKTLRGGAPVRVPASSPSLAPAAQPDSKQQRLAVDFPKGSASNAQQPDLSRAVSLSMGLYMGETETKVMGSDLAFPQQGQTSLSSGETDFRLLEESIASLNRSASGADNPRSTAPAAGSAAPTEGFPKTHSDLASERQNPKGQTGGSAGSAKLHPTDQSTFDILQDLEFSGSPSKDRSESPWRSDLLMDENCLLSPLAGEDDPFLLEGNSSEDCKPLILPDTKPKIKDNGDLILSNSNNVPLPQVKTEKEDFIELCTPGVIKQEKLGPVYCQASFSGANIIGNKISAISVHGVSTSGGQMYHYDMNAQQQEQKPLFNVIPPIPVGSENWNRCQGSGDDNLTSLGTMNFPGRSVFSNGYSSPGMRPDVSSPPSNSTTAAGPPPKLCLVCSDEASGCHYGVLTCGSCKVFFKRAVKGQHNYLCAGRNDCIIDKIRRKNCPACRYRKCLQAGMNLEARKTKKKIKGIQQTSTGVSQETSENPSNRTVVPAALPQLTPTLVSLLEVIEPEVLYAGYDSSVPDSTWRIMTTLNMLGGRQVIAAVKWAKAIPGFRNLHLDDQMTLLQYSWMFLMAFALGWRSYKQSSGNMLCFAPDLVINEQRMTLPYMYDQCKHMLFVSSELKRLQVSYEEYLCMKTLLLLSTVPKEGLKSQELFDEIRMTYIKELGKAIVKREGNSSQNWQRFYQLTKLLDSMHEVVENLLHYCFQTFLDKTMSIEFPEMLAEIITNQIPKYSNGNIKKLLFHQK
Description: as §1, with “Briefly, cytosol containing PR or GR were prepared in TEGMD buffer (10 mM Tris, pH 7.2, 1.5 mM EDTA, 0.2 mM sodium molybdate, 10% glycerol, 1 mM DTT) from uterus or thymus, respectively, of estradiol-primed immature rabbits.” left out
C. Supernatants containing the [3H]-steroid receptor complexes were decanted into vials containing 4 ml Optifluor (Packard Instrument Co.), vortexed, equilibrated in a liquid scintillation counter for 30 minutes and then counted for 2 minutes. […] The standards for the PR and GR assays were unlabeled progesterone and dexamethasone, respectively.

[3] = Serum progesterone by ELISA; format: in vivo, rat
Description: (§2) The animals were assessed three times for their levels of progesterone: initially, when they were about to go on treatment; a second time after 21 days of treatment; and finally after treatment at sacrifice which was 2-4 days after the last s.c. injection. All blood samples were taken by heart puncture; serum was prepared and held frozen at −40° C. The levels of the steroid hormones progesterone, cortisol, and corticosterone were determined by ELISA.
(§3) The concentrations of steroid hormones were determined three times during the study: before the beginning of treatments, after 21 days of treatment and finally after treatment at sacrifice which was 2-4 days after the last s.c. injection. All samples were taken by heart puncture. Serum was obtained and held frozen at −40° C. The levels of steroid hormones were determined by ELISA.

[4] = Estrogen levels in human females during administration; format: in vivo; settings: administration periods of at least six months
Serum cortisol by ELISA = format: in vivo, rat; settings: 10 mg/kg, 21 days of dosing
Description: as §2, §3

[5] = Estrogenic, androgenic, anti-estrogenic and anti-androgenic activities
glucocorticoid receptor = molecular target: T2, glucocorticoid receptor (Homo sapiens, UniProt P04150); settings: compared with parent CDB-4124; cited from earlier work
T2 sequence (P04150 1-777): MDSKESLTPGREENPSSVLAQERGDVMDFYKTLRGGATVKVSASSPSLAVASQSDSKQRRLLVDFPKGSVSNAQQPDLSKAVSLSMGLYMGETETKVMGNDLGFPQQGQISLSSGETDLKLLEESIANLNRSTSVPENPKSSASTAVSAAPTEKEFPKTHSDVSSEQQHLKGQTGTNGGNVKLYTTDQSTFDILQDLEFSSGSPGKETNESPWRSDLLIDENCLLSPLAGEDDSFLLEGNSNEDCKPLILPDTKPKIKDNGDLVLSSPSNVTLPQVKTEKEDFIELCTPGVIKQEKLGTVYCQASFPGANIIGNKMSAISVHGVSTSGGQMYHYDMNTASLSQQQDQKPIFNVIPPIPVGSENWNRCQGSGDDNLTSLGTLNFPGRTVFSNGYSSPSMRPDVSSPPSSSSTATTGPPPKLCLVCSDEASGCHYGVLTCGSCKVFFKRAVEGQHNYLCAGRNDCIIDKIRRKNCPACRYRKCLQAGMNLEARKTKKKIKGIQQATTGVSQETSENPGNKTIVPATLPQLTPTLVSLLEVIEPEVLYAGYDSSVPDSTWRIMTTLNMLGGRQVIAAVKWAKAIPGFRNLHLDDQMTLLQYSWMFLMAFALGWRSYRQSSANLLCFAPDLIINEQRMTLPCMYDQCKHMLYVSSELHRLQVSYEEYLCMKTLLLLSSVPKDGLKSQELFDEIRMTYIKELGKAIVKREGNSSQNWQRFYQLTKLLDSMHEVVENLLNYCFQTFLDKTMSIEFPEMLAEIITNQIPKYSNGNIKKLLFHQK

Structure (SMILES)	antiprogestin activity in the rabbit uterus (in words) (rabbit uterus)	rbPR/rbGR (ratio of the relative binding affinities for rbPR and rbGR) [1]	anti-glucocorticoid receptor activity / glucocorticoid receptor binding (in words) [2]	serum progesterone versus before treatment (in words) ([3]; 10 mg/kg)	Serum Progesterone, Before TX (mean) ([3]; 10 mg/kg group, before treatment) [ng/mL]	Serum Progesterone, During TX (mean) ([3]; 10 mg/kg, after 21 days of treatment) [ng/mL]	Serum Progesterone, After TX (mean) ([3]; 10 mg/kg, at sacrifice 2-4 days after the last s.c. injection) [ng/mL]	estrogen levels in human females (in words) [4]	serum cortisol versus control group (in words) (Serum cortisol by ELISA)	estrogenic, androgenic, anti-estrogenic, and anti-androgenic activities (in words) [5]	anti-glucocorticoid activity (in words) (glucocorticoid receptor)
CC(=O)OCC(=O)[C@@]1(OC(C)=O)CCC2C3CCC4=CC(=O)CCC4=C3C(c3ccc(N(C)C)cc3)C[C@@]21C (stereo partly drawn) [CDB-4059, 21-acetoxy-17α-acetoxy-11β-(4 N,N-dimethylaminophenyl)-19-norpregna-4,9-diene-3,20-dione]	strong antiprogestin activity	1.89	minimal anti-glucocorticoid receptor activity	did not raise serum progesterone levels	57	58	47	maintain estrogen levels in the normal range	significantly higher levels of serum cortisol	lack estrogenic, androgenic, anti-estrogenic, and anti-androgenic activities	–
CNc1ccc([C@H]2C[C@@]3(C)[C@@H](CC[C@]3(OC(C)=O)C(=O)COC)[C@@H]3CCC4=CC(=O)CCC4=C32)cc1 [CDB-4453, 21-methoxy-17α-acetoxy-11β-(4-N-methylaminophenyl)-19-norpregna-4,9-diene-3,20-dione]	–	–	–	–	–	–	–	–	–	–	even lower anti-glucocorticoid activity than its parent
